Laboratory results: patent publication US10370378B2, “Treatment of sleep disorders” (Evotec International GmbH, priority 2007, dated 2019)
Entries after “also recorded” stand apart in the source; their conditions may differ. Marks after values point to notes of the source that are not given here.

Assays:
[1] = Pharmacokinetic profile in non-elderly adults and the elderly (FIG. 16); type: in vivo, human; settings: free base
Text: FIG. 16 is a chart showing an exemplary pharmacokinetic (PK) profile of the compound of formula (II) (free base) in both the non-elderly adults and the elderly. Mean dose adjusted plasma concentrations of the compound of formula (II) (free base) in non-elderly (open circle) and elderly males (open square) and M1 (active metabolite of the compound of formula (II) (free base)) in non-elderly adults (filled circle) and the elderly (filled square).
As a result, the inventors determined that the same or similar doses of the compound of formula (II), which are effective for non-elderly adults (18-64 years of age), could be effective for the elderly.

[2] = test system: healthy volunteers subjected to road traffic noise; assay: Example 1: placebo controlled cross-over study, road noise model; type: in vivo, human
Experimental: A placebo controlled, randomized, double-blind, cross-over study of the effects of the compound of formula (II) was conducted using a road noise model using 12 healthy volunteers. Specifically, the volunteers were subjected to road traffic noise to imitate the effects of insomnia, and the medication was orally administered 5 minutes before the 11 pm bed time in 1.0 mg, 1.5 mg, 2 mg and 2.5 mg doses in the form of a hard gelatine capsule containing the powdered compound of formula (II) in free base form. Measurements were then taken at 8, 10 and 12 hours after dosing.

[3] = biological target: T1, α1β2γ2 GABAA receptors (Rattus norvegicus, UniProt P18508+P62813); assay: Stimulation of currents elicited by GABA (EC3-5), two-electrode voltage clamp, receptors expressed in Xenopus oocytes; type: cell-based
T1 construct: expressed in transfected cells; host or cells: Xenopus laevis oocytes, cRNA microinjection
Text: 7-Chloro-3-(5-dimethylaminomethyl-[1,2,4]oxadiazol-3-yl)-5-methyl-4,5-dihydro-imidazol[1,5,-a][1,4]benzodiazepine-6-one was used to test the effects of the compound of formula (II): […]
Similar procedures were chosen as for the investigation of other GABAA receptor subunit specific substances (e.g., Baur et al., 2005; Mol. Pharmacol. 68, 787-792).
Lobes of the ovary containing the follicles were obtained by surgical procedures from female Xenopus laevis. Follicles were singled out using a platinum loop. Fifty nL of cRNA solution at a ratio of αx:β2:γ2 of 1:1:5 (3.3-10 nM αx (x=1, 2, 3, 5); 3.3-10 nM β2; 16.7-50 nM γ2) (Boileau et al., 2002; Neuropharmacology 43, 695-700) were microinjected into Xenopus follicles. Several hours after microinjection the follicles were freed of follicular layers and adhering connective tissue by a collagenase/hypertonic shock procedure (Sigel, 1987; J. Physiol. (Land) 386, 73-90). Oocytes were kept at constant 18° C. until measurement (1-4 days) in a modified Barth solution (88 mM NaCl, 1 mM KCl, 2.4 mM NaHCO3, 10 mM Hepes-NaOH (pH 7.5), 0.82 mM MgSO4×7H2O, 0.34 mM Ca(NO3)2×4H2O, 0.41 mM CaCl2×2H2O, 100 U Penicillin/mL, 100 μg Streptomycin/mL, sterile filtered).
Currents were measured using a home-built amplifier in combination with a xy-recorder or were digitized using a MacLab/200 (AD Instruments) and stored on a computer. Xenopus oocytes were voltage clamped using the two-electrode voltage clamp technique (electrode resistance about 0.8 MΩ) at −80 mV. The medium contained 90 mM NaCl, 1 mM KCl, 1 mM MgCl2, 1 mM CaCl2, 10 mM Na-Hepes (pH 7.4) and 0.5% DMSO.
GABA was applied for 20-50 seconds without or in combination with other drugs and a washout period of 4 minutes was allowed to ensure full recovery from desensitization, which was experimentally determined. The perfusion solution (6 mL/min) was applied through a glass capillary with an inner diameter of 1.35 mm, the mouth of which was placed about 0.4 mm from the surface of the oocyte. The rate of solution change under our conditions has been estimated 70% within less than 0.5 s (Sigel et al., 1990; Neuron 5, 703-711). The entire perfusion system and the assay chamber were cleaned between drug applications by washing with DMSO.
Data is given as mean±SD, except in the figures where data is shown for clarity as mean±SEM. Current stimulation was calculated as follows: stimulation (%)=((I(GABA+modulator)−I(GABA))/I(GABA))×100%, where I is the current amplitude. Where indicated, the stimulation was standardized to the stimulation by 1 μM diazepam (100%). To obtain FIGS. 1-4, values for current stimulation obtained at a given concentration of modulator at a given subunit combination were averaged. The data points were fitted with the equation stimulation=efficacy/(1+(potency/concentration of modulator)). The values given in the Tables (Summary) are obtained by fitting individual curves and subsequently averaging efficacy and potency. […]
GABA was then applied in combination with various concentrations of the compound of formula (II) between 0.3 nM and 3,000 nM to produce a cumulative concentration response curve. […] In each batch of oocytes the stimulation by 1 μM diazepam was determined in five oocytes, extent of stimulation averaged and defined as 100%. Where indicated, stimulation by the compound of formula (II) in each batch of oocytes was expressed as a percentage of this value in the corresponding batch. […]

[4] = 1.5, 2.0 & 2.5 mg oral, objective
[5] = all 4 doses (1.0, 1.5, 2, 2.5 mg)
[6] = all 4 doses, objective residual effects

T1 sequence (P62813 28-455): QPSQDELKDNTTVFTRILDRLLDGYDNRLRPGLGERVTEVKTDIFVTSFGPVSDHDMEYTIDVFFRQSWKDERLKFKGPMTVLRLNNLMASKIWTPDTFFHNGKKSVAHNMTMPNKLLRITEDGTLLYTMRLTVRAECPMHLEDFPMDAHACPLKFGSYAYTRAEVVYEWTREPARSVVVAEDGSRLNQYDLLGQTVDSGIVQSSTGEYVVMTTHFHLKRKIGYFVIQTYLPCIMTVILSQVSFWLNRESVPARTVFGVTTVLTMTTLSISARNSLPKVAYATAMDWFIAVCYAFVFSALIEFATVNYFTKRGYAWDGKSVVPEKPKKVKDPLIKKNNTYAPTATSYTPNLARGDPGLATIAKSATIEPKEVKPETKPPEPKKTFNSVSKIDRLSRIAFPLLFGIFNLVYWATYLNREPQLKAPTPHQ
T1 sequence (P63138 25-474 partner limits assumed): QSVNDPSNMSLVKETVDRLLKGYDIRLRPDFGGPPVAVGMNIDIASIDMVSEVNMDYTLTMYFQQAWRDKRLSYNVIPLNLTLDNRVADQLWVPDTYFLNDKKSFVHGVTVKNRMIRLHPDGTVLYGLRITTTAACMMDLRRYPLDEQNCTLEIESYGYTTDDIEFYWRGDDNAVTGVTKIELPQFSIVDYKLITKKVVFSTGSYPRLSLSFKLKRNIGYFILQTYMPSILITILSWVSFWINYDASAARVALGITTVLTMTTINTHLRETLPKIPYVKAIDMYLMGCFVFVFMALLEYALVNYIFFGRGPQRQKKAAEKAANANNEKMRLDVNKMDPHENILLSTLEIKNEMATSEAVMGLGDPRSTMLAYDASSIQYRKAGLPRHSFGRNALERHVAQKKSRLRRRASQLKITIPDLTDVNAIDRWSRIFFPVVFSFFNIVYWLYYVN
T1 sequence (P18508 39-466): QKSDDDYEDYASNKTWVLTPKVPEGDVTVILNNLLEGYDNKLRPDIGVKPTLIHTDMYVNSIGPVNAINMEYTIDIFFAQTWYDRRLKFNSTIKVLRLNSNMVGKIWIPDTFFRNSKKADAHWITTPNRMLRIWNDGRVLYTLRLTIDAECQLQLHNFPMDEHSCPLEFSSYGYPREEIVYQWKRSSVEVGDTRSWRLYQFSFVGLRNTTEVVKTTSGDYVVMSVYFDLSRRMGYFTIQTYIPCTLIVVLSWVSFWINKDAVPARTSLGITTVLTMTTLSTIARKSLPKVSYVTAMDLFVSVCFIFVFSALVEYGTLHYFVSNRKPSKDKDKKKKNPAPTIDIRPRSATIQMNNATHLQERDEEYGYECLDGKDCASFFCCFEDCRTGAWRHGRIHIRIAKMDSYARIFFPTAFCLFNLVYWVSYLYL

Compound: CN(C)Cc1nc(-c2ncn3c2CN(C)C(=O)c2c(Cl)cccc2-3)no1 [compound of formula (II), 7-chloro-3-(5-dimethylaminomethyl-[1,2,4]oxadiazol-3-yl)-5-methyl-4,5-dihydro-imidazo[1,5-a][1,4]benzodiazepine-6-one]
- pharmacokinetic (PK) profile in non-elderly versus elderly [1]: similar
- Subjective assessment (LARS): Coordination ([2]; 2.5 mg): No impairment
- Subjective assessment (LARS): Mood ([2]; 2.5 mg): No impairment
- Subjective assessment (LARS): Sedation ([2]; 2.5 mg): No impairment
- WASO, 2nd half (hrs 5-8) [2, 4]: Significantly reduced
- WASO, full night (hrs 0-8) [2, 4]: Significantly reduced
- Sleep Efficiency Index ([2]; 2.0 & 2.5 mg oral, objective): Significantly improved
- TST ([2]; 2.0 & 2.5 mg oral, objective): Significantly improved
- Performance on any of the cognitive or psychomotor tests ([2]; 8 to 12 hours after dose, data corrected for multiple comparisons): no impairment
- Choice Reaction Time - Motor Component ([2]; all 4 doses): No effect (all 4 doses)
- Critical Flicker Fusion Test ([2]; all 4 doses): No effect (all 4 doses)
- Word Recall - delayed (WRd) ([2]; all 4 doses): No effect (all 4 doses)
- SWS (% and duration) [2, 5]: Significantly increased
- Stage IV Sleep (% and duration) [2, 5]: Significantly increased
- Leeds Sleep Evaluation Questionnaire: Getting to sleep ([2]; all 4 doses, model considered nondiscriminant for sleep onset): (No effect to all 4 doses)*
- Rapid Visual Information Processing [2, 6]: No effect (all 4 doses)
- Sustained Attention to Response (SART) [2, 6]: No effect (all 4 doses)
- Leeds Sleep Evaluation Questionnaire: Early morning behaviour (clumsiness & tiredness) ([2]; all 4 doses, subjective): No effect (all 4 doses)
- Leeds Sleep Evaluation Questionnaire: Ease of awakening ([2]; all 4 doses, subjective): No effect (all 4 doses)
- Sternberg Memory Task (STM) ([2]; at 8 or 12 h, all 4 doses): No effect at 8 or 12 h (all 4
- Continuous Tracking Task - reaction time ([2]; at 10 or 12 h, all 4 doses): No effect at 10 or 12 h (all
- Continuous Tracking Task - deviation ([2]; at 8 h, all 4 doses): No effect at 8 h (all 4
- Intrinsic activity / type of allosteric modulation ([3]; GABAA receptor benzodiazepine site): partial agonist; also recorded: partial positive allosteric modulator
- Receptor subtype preference in comparison to α5β2γ2, α3β2γ2 and α2β2γ2 ([3]; concentrations <100 nM): preference for α1β2γ2 GABAA receptors
